Columns and labels:
Type in all cases: functional, cell-based
KB = experiment: Cytotoxicity against human KB cells
SK-OV-3 = experiment: Cytotoxicity against human SKOV3 cells
LoVo = experiment: Cytotoxicity against human LoVo cells

Row | Structure (SMILES) | IC50 (KB) [nM] | IC50 (SK-OV-3) [nM] | IC50 (LoVo) [nM]
1 | COc1ccc(C[C@H]2NC(=O)/C=C/C[C@@H]([C@H](C)/C=C/c3ccccc3)OC(=O)[C@H](CC(C)C)OC(=O)[C@H](C)CNC2=O)cc1Cl [CRYPTOPHYCIN 3] | 1.9 | 1.9 | 1.9
2 | COc1ccc(C[C@@H]2NC(=O)/C=C/C[C@@H]([C@H](C)/C=C/c3ccccc3)OC(=O)[C@H](CC(C)C)OC(=O)[C@H](C)CNC2=O)cc1Cl [CRYPTOPHYCIN 46] | 750 | 750 | 750
3 | COc1c(Cl)cc(C[C@H]2NC(=O)/C=C/C[C@@H]([C@H](C)/C=C/c3ccccc3)OC(=O)[C@H](CC(C)C)OC(=O)[C@H](C)CNC2=O)cc1Cl [CRYPTOPHYCIN 175] | 100 | 100 | 100
4 | CC(C)C[C@@H]1OC(=O)CCNC(=O)[C@@H](Cc2ccc(O)c(Cl)c2)NC(=O)/C=C/C[C@@H]([C@H](C)[C@H]2O[C@@H]2c2ccccc2)OC1=O [CRYPTOPHYCIN 176] | 1.3 | 1.3 | 1.3
5 | COc1ccc(C[C@H]2NC(=O)/C=C/C[C@@H]([C@H](C)[C@H]3O[C@@H]3c3ccccc3)OC(=O)[C@H](CC(C)C)OC(=O)[C@H](C)CNC2=O)cc1Cl [CRYPTOPHYCIN A] | 0.0092 | 0.0092 | 0.0092
